Like-named read-outs stand apart in the source and are kept apart here.
What was measured:
Set-up in all cases: species or system mice
[1] = system: H1437 tumor; assay: In vivo solid tumor disease model, H1437; details: H1437, 15 mg/kg orally daily, 16 days
[2] = system: Panc-1 tumor; assay: In vivo solid tumor disease model, Panc-1; details: Panc-1, 20 mg/kg orally daily, 13 days
[3] = system: U87MG tumor; assay: In vivo solid tumor disease model, U87MG; details: Mus musculus, U-87 MG, po, 20 mg/kg orally daily, read-out: Tumor Growth Inhibition (%)
Source text: (§1) This test measures the capacity of compounds to inhibit solid tumor growth.
(§2) Tumor xenografts are established in the flank of female athymic CD1 mice (Charles River Inc.), by subcutaneous injection of 1×106 U87, A431 or SKLMS cells/mouse. Once established, tumors are then serially passaged s.c. in nude mice hosts. Tumor fragments from these host animals are used in subsequent compound evaluation experiments. For compound evaluation experiments female nude mice weighing approximately 20 g are implanted s.c. by surgical implantation with tumor fragments of ˜30 mg from donor tumors. When the tumors are approximately 100 mm3 in size (˜7-10 days following implantation), the animals are randomized and separated into treatment and control groups. Each group contains 6-8 tumor-bearing mice, each of which is ear-tagged and followed individually throughout the experiment.
(§3) Mice are weighed and tumor measurements are taken by calipers three times weekly, starting on Day 1. These tumor measurements are converted to tumor volume by the well-known formula (L+W/4)3 4/3π. The experiment is terminated when the control tumors reach a size of approximately 1500 mm^3. In this model, the change in mean tumor volume for a compound treated group/the change in mean tumor volume of the control group (non-treated or vehicle treated)×100 (ΔT/ΔC) is subtracted from 100 to give the percent tumor growth inhibition (% TGI) for each test compound. In addition to tumor volumes, body weight of animals is monitored twice weekly for up to 3 weeks.

[4] = system: SKLMS tumor; assay: In vivo solid tumor disease model, SKLMS; details: 20 mg/kg orally daily, 15 days
Source text: as §1, §2
Mice are weighed and tumor measurements are taken by calipers three times weekly, starting on Day 1. These tumor measurements are converted to tumor volume by the well-known formula (L+W/4)3 4/3π. The experiment is terminated when the control tumors reach a size of approximately 1500 mm^3. […] In addition to tumor volumes, body weight of animals is monitored twice weekly for up to 3 weeks.

[5] = system: MNNG HOS tumor; assay: In vivo solid tumor disease model, MNNG HOS; details: 20 mg/kg orally daily, 6 days
[6] = system: MKN45 tumor; assay: In vivo solid tumor disease model, MKN45; details: Mus musculus, MKN-45, po, MKN45, 20 mg/kg orally daily, read-out: Tumor Growth Inhibition (%)
[7] = system: A549 tumor; assay: In vivo solid tumor disease model, A549; details: A549, 20 mg/kg orally daily, 12 days
[8] = system: SKLMS40 tumor; assay: In vivo solid tumor disease model, SKLMS40; details: Mus musculus, po, 312 h; SKLMS40, 20 mg/kg orally daily, 13 days; read-out: Tumor Growth Inhibition (%)
Source text: as §1, §2, §3

[9] = system: MDAMB231 tumor; assay: In vivo solid tumor disease model, MDAMB231; details: MDAMB231, 20 mg/kg orally daily, 13 days
[10] = system: HCT116 tumor; assay: In vivo solid tumor disease model, HCT116; details: HCT116, 20 mg/kg orally daily, 13 days

`COCCNCc1ccc(-c2cc3nccc(Oc4ccc(NC(=S)NC(=O)Cc5ccc(F)cc5)c(F)c4)c3s2)nc1` was tested, and the “Tumor Growth Inhibition (%)” value [1] was “A (tumor growth inhibition of less than 25%)”.

In the case of `COCCNCc1ccc(-c2cc3nccc(Oc4ccc(NC(=O)Nc5coc(C)c5)cc4F)c3s2)nc1`, the “Tumor Growth Inhibition (%)” value [2] is reported as “D D D (tumor growth inhibition of ≧75%)”, the inhibition in vivo at 20 mg/kg ([3]; 312 h, 13 days) is reported as no less than 75% and the “Tumor Growth Inhibition (%)” value [4] is reported as “D D D (tumor growth inhibition of ≧75%)”.

In the case of `COCCNCc1ccc(-c2cc3nccc(Oc4ccc(NC(=O)C5(C(=O)Nc6ccc(F)cc6)CC5)cc4F)c3s2)o1`, the “Tumor Growth Inhibition (%)” value [2] is reported as “D (tumor growth inhibition of ≧75%)”.

In the case of `COCCNCc1ccc(-c2cc3nccc(Oc4ccc(NC(=O)NNC(=O)c5ccccc5)cc4F)c3s2)nc1`, the “Tumor Growth Inhibition (%)” value [2] is reported as “A (tumor growth inhibition of less than 25%)”.

For `COCCNCc1cccc(-c2cc3nccc(Oc4ccc(NC(=S)NC(=O)Cc5ccc(F)cc5)cc4F)c3s2)c1` [drawing 360], the “Tumor Growth Inhibition (%)” value [5] was “A (tumor growth inhibition of less than 25%)” and the inhibition in vivo at 20 mg/kg ([6]; 168 h, 7 days) was 50 to 75%.

In the case of `COCCNCc1ccc(-c2cc3nccc(Oc4ccc(NC(=O)CC(=O)N(C)c5ccccc5)cc4F)c3s2)nc1` [drawing 373], the “Tumor Growth Inhibition (%)” value [7] is reported as “C (tumor growth inhibition of ≧50% but <75%)”, the inhibition in vivo at 20 mg/kg ([3]; 288 h, 12 days) is reported as 25 to 50% and the inhibition in vivo at 20 mg/kg ([6]; 312 h, 13 days) is reported as 50 to 75%. The inhibition in vivo at 20 mg/kg [8] was less than 25%.

With `COCCNCc1ccc(-c2cc3nccc(Oc4ccc(NC(=O)C5(C(=O)Nc6ccccc6)CC5)cc4F)c3s2)nc1` [drawing 374] the “Tumor Growth Inhibition (%)” value [7] was “C (tumor growth inhibition of ≧50% but <75%)”, the inhibition in vivo at 20 mg/kg ([3]; 288 h, 12 days) was no less than 75% and the inhibition in vivo at 20 mg/kg ([6]; 312 h, 13 days) was no less than 75%. The inhibition in vivo at 20 mg/kg [8] was 50 to 75%.

`COCCNCc1ccc(-c2cc3nccc(Oc4ccc(NC(=O)C5(C(=O)Nc6ccc(F)cc6)CC5)cc4F)c3s2)nc1` [drawing 376] was tested, and the inhibition in vivo at 20 mg/kg ([3]; 288 h, 12 days) was no less than 75%, the inhibition in vivo at 20 mg/kg [8] was no less than 75% and the “Tumor Growth Inhibition (%)” value [9] was “D D D (tumor growth inhibition of ≧75%)”.

With `COCCNCc1ccc(-c2cc3nccc(Oc4ccc(NC(=O)Nc5cc(C(C)(C)C)on5)cc4F)c3s2)nc1` [drawing 379] the “Tumor Growth Inhibition (%)” value [10] was “C (tumor growth inhibition of ≧50% but <75%)”.
